Reference: ChEMBL document CHEMBL3860084, “Allyl and prenyl ethers of mansonone G, new potential semisynthetic antibacterial agents” (2016)
≈ marks a conversion by molar mass, not a printed value.

Experiments:
[1] = system: Cutibacterium acnes; test: Antibacterial activity against Propionibacterium acnes KCCM 41747 at 1000 uM after 24 hrs by agar well-diffusion method; format: functional; conditions: KCCM 41747, 24 h, read-out: DIZ
[2] = system: Staphylococcus aureus; test: Antibacterial activity against Staphylococcus aureus ATCC 25923 at 1000 uM after 24 hrs by agar well-diffusion method; format: functional; conditions: ATCC 25923, 24 h, read-out: DIZ
[3] = system: Salmonella typhi; test: Antibacterial activity against Salmonella typhi ATCC 422 at 1000 uM after 24 hrs by agar well-diffusion method; format: functional, Salmonella enterica subsp. enterica serovar Typhi; conditions: Salmonella enterica, ATCC 422, 24 h; read-out: DIZ
[4] = system: Streptococcus mutans; test: Antibacterial activity against Streptococcus mutans ATCC 25175 at 1000 uM after 24 hrs by agar well-diffusion method; format: functional; conditions: ATCC 25175, 24 h, read-out: DIZ
[5] = system: Streptococcus sobrinus; test: Antibacterial activity against Streptococcus sobrinus KCCM 11898 at 1000 uM after 24 hrs by agar well-diffusion method; format: functional; conditions: KCCM 11898, 24 h, read-out: DIZ
[6] = system: Streptococcus mutans; test: Antibacterial activity against Streptococcus mutans ATCC 25175 at 500 uM after 24 hrs by agar well-diffusion method; format: functional; conditions: ATCC 25175, 24 h, read-out: DIZ
[7] = system: Staphylococcus aureus; test: Antibacterial activity against Staphylococcus aureus ATCC 25923 at 500 uM after 24 hrs by agar well-diffusion method; format: functional; conditions: ATCC 25923, 24 h, read-out: DIZ
[8] = system: Streptococcus sobrinus; test: Antibacterial activity against Streptococcus sobrinus KCCM 11898 at 500 uM after 24 hrs by agar well-diffusion method; format: functional; conditions: KCCM 11898, 24 h, read-out: DIZ
[9] = system: Cutibacterium acnes; test: Antibacterial activity against Propionibacterium acnes KCCM 41747 at 500 uM after 24 hrs by agar well-diffusion method; format: functional; conditions: KCCM 41747, 24 h, read-out: DIZ
[10] = system: Salmonella typhi; test: Antibacterial activity against Salmonella typhi ATCC 422 at 500 uM after 24 hrs by agar well-diffusion method; format: functional, Salmonella enterica subsp. enterica serovar Typhi; conditions: Salmonella enterica, ATCC 422, 24 h; read-out: DIZ
[11] = system: Staphylococcus aureus; test: Antibacterial activity against Staphylococcus aureus ATCC 25923 by resazurin based broth microdilution method; format: functional
[12] = system: Cutibacterium acnes; test: Antibacterial activity against Propionibacterium acnes KCCM 41747 by resazurin based broth microdilution method; format: functional
[13] = system: Streptococcus sobrinus; test: Antibacterial activity against Streptococcus sobrinus KCCM 11898 by resazurin based broth microdilution method; format: functional
[14] = system: Salmonella typhi; test: Antibacterial activity against Salmonella typhi ATCC 422 by resazurin based broth microdilution method; format: functional, Salmonella enterica subsp. enterica serovar Typhi; conditions: Salmonella enterica
[15] = system: Streptococcus mutans; test: Antibacterial activity against Streptococcus mutans ATCC 25175 by resazurin based broth microdilution method; format: functional

CCCCCCCCCC(=O)Oc1cc(C)c2c(c1C(C)C)C=C(C)C(=O)C2=O gave a zone of inhibition at 1000 µM [1] of 11.4 mm, a zone of inhibition at 1000 µM [2] of 7 mm and a zone of inhibition at 1000 µM [3] of 8.2 mm. It also gave a zone of inhibition at 1000 µM [4] of 9.7 mm and a zone of inhibition at 1000 µM [5] of 10.7 mm.
CCCCCC(=O)Oc1cc(C)c2c(c1C(C)C)C=C(C)C(=O)C2=O gave a zone of inhibition at 1000 µM [1] of 11.6 mm, a zone of inhibition at 1000 µM [2] of 14.7 mm and a zone of inhibition at 1000 µM [3] of 9.7 mm. For the same compound, the zone of inhibition at 1000 µM [4] was 12 mm and the zone of inhibition at 1000 µM [5] was 12.7 mm.
Compound O=C(N[C@H](CO)[C@H](O)c1ccc([N+](=O)[O-])cc1)C(Cl)Cl [CHLORAMPHENICOL] has a zone of inhibition at 500 µM [6] of 25.7 mm, a zone of inhibition at 500 µM [7] of 20.7 mm and a zone of inhibition at 500 µM [8] of 25.3 mm. For the same compound, the zone of inhibition at 500 µM [9] was 30 mm and the zone of inhibition at 500 µM [10] was 24.8 mm.
Compound CC1=C2OCC(C)c3c(O)cc(C)c(c32)C(=O)C1=O (stereo not given) has an MIC [11] of 250 µM (≈ 64.6 µg/mL), an MIC [12] of 125 µM (≈ 32.3 µg/mL) and a zone of inhibition at 1000 µM [1] of 11.9 mm. The MIC [13] was 62.5 µM (≈ 16.1 µg/mL), the MIC [14] was 31.2 µM (≈ 8.07 µg/mL) and the MIC [15] was 62.5 µM (≈ 16.1 µg/mL). For the same compound, the zone of inhibition at 1000 µM [2] was 12 mm, the zone of inhibition at 1000 µM [3] was 11 mm and the zone of inhibition at 1000 µM [4] was 10.3 mm. It also gave a zone of inhibition at 1000 µM [5] of 8.3 mm.
CC1=Cc2c(C(C)C)ccc(C)c2C(=O)C1=O was tested, and the MIC [11] was 62.5 µM (≈ 14.3 µg/mL), the MIC [12] was 62.5 µM (≈ 14.3 µg/mL) and the zone of inhibition at 1000 µM [1] was 13.3 mm. The MIC [13] was 31.2 µM (≈ 7.13 µg/mL), the MIC [14] was 31.2 µM (≈ 7.13 µg/mL) and the MIC [15] was 15.6 µM (≈ 3.56 µg/mL). The zone of inhibition at 1000 µM [2] was 12.7 mm, the zone of inhibition at 1000 µM [3] was 11.3 mm and the zone of inhibition at 1000 µM [4] was 13.7 mm. The zone of inhibition at 1000 µM [5] was 9.3 mm.
In the case of CC1=C2OCC(C)c3ccc(C)c(c32)C(=O)C1=O (stereo not given) [MANSONONE E], the MIC [11] was 31.2 µM (≈ 7.57 µg/mL), the MIC [12] was 31.2 µM (≈ 7.57 µg/mL) and the zone of inhibition at 1000 µM [1] was 13.5 mm. The MIC [13] was 15.6 µM (≈ 3.78 µg/mL), the MIC [14] was 15.6 µM (≈ 3.78 µg/mL) and the MIC [15] was 3.9 µM (≈ 0.945 µg/mL). The zone of inhibition at 1000 µM [2] was 19.7 mm, the zone of inhibition at 1000 µM [3] was 11.6 mm and the zone of inhibition at 1000 µM [4] was 20.3 mm. It also gave a zone of inhibition at 1000 µM [5] of 16.7 mm.
For C=CCOc1cc(C)c2c(c1C(C)C)C=C(C)C(=O)C2=O, the MIC [11] was 0.975 µM (≈ 0.277 µg/mL), the MIC [12] was 31.2 µM (≈ 8.89 µg/mL) and the zone of inhibition at 1000 µM [1] was 14.8 mm. The MIC [13] was 15.6 µM (≈ 4.44 µg/mL), the MIC [14] was 62.5 µM (≈ 17.8 µg/mL) and the MIC [15] was 31.2 µM (≈ 8.89 µg/mL). For the same compound, the zone of inhibition at 1000 µM [2] was 23 mm, the zone of inhibition at 1000 µM [3] was 14.5 mm and the zone of inhibition at 1000 µM [4] was 17.3 mm. For the same compound, the zone of inhibition at 1000 µM [5] was 16 mm.
Work on CCCCOc1cc(C)c2c(c1C(C)C)C=C(C)C(=O)C2=O yielded an MIC [11] of 15.6 µM (≈ 4.69 µg/mL), an MIC [12] of 15.6 µM (≈ 4.69 µg/mL) and a zone of inhibition at 1000 µM [1] of 13.6 mm. For the same compound, the MIC [13] was 125 µM (≈ 37.5 µg/mL), the MIC [14] was 3.9 µM (≈ 1.17 µg/mL) and the MIC [15] was 7.8 µM (≈ 2.34 µg/mL). The zone of inhibition at 1000 µM [2] was 18 mm, the zone of inhibition at 1000 µM [3] was 12 mm and the zone of inhibition at 1000 µM [4] was 18.3 mm. The zone of inhibition at 1000 µM [5] was 15.5 mm.
For CC(C)=CCC/C(C)=C/COc1cc(C)c2c(c1C(C)C)C=C(C)C(=O)C2=O, the zone of inhibition at 1000 µM [1] was 11.1 mm, the MIC [14] was 125 µM (≈ 47.6 µg/mL) and the zone of inhibition at 1000 µM [2] was 14 mm. It also gave a zone of inhibition at 1000 µM [3] of 14 mm, a zone of inhibition at 1000 µM [4] of 16.2 mm and a zone of inhibition at 1000 µM [5] of 11.5 mm.
For CCCC(=O)Oc1cc(C)c2c(c1C(C)C)C=C(C)C(=O)C2=O, the MIC [11] was 62.5 µM (≈ 19.6 µg/mL), the zone of inhibition at 1000 µM [1] was 13 mm and the zone of inhibition at 1000 µM [2] was 18 mm. For the same compound, the zone of inhibition at 1000 µM [3] was 10.7 mm, the zone of inhibition at 1000 µM [4] was 12.7 mm and the zone of inhibition at 1000 µM [5] was 13.7 mm.
CCCCCCCC(=O)Oc1cc(C)c2c(c1C(C)C)C=C(C)C(=O)C2=O gave a zone of inhibition at 1000 µM [1] of 11.5 mm, a zone of inhibition at 1000 µM [2] of 8.7 mm and a zone of inhibition at 1000 µM [3] of 9.6 mm. It also gave a zone of inhibition at 1000 µM [4] of 10.3 mm and a zone of inhibition at 1000 µM [5] of 11.3 mm.
CC1=Cc2c(c(C)cc(O)c2C(C)C)C(=O)C1=O [MANSONONE G] was tested, and the MIC [11] was 62.5 µM (≈ 15.3 µg/mL), the MIC [12] was 31.2 µM (≈ 7.63 µg/mL) and the zone of inhibition at 1000 µM [1] was 15.6 mm. It also gave an MIC [13] of 31.2 µM (≈ 7.63 µg/mL), an MIC [14] of 15.6 µM (≈ 3.81 µg/mL) and an MIC [15] of 31.2 µM (≈ 7.63 µg/mL). For the same compound, the zone of inhibition at 1000 µM [2] was 13.7 mm, the zone of inhibition at 1000 µM [3] was 11.9 mm and the zone of inhibition at 1000 µM [4] was 14.7 mm. The zone of inhibition at 1000 µM [5] was 10 mm.
Work on COc1cc(C)c2c(c1C(C)C)C=C(C)C(=O)C2=O yielded a zone of inhibition at 1000 µM [1] of 13.2 mm, a zone of inhibition at 1000 µM [2] of 15.3 mm and a zone of inhibition at 1000 µM [3] of 10.7 mm. For the same compound, the zone of inhibition at 1000 µM [4] was 11.3 mm and the zone of inhibition at 1000 µM [5] was 10.7 mm.
CCCCCCCCOc1cc(C)c2c(c1C(C)C)C=C(C)C(=O)C2=O showed an MIC [11] of 15.6 µM (≈ 5.56 µg/mL), an MIC [12] of 31.2 µM (≈ 11.1 µg/mL) and a zone of inhibition at 1000 µM [1] of 14.6 mm. It also gave an MIC [13] of 31.2 µM (≈ 11.1 µg/mL), an MIC [14] of 31.2 µM (≈ 11.1 µg/mL) and an MIC [15] of 31.2 µM (≈ 11.1 µg/mL). It also gave a zone of inhibition at 1000 µM [2] of 20 mm, a zone of inhibition at 1000 µM [3] of 16.3 mm and a zone of inhibition at 1000 µM [4] of 20 mm. The zone of inhibition at 1000 µM [5] was 15.7 mm.
CCCCCCCCCCCCOc1cc(C)c2c(c1C(C)C)C=C(C)C(=O)C2=O showed a zone of inhibition at 1000 µM [1] of 11.9 mm, a zone of inhibition at 1000 µM [2] of 9 mm and a zone of inhibition at 1000 µM [3] of 11.5 mm. It also gave a zone of inhibition at 1000 µM [4] of 9 mm and a zone of inhibition at 1000 µM [5] of 8 mm.
With CC(C)=CCOc1cc(C)c2c(c1C(C)C)C=C(C)C(=O)C2=O the MIC [11] was 0.975 µM (≈ 0.305 µg/mL), the MIC [12] was 31.2 µM (≈ 9.76 µg/mL) and the zone of inhibition at 1000 µM [1] was 15 mm. The MIC [13] was 31.2 µM (≈ 9.76 µg/mL), the MIC [14] was 62.5 µM (≈ 19.5 µg/mL) and the MIC [15] was 31.2 µM (≈ 9.76 µg/mL). It also gave a zone of inhibition at 1000 µM [2] of 23.7 mm, a zone of inhibition at 1000 µM [3] of 16.3 mm and a zone of inhibition at 1000 µM [4] of 17.7 mm. The zone of inhibition at 1000 µM [5] was 16.7 mm.
In the case of CCOc1cc(C)c2c(c1C(C)C)C=C(C)C(=O)C2=O, the MIC [12] was 62.5 µM (≈ 17 µg/mL), the zone of inhibition at 1000 µM [1] was 13.3 mm and the MIC [13] was 31.2 µM (≈ 8.51 µg/mL). It also gave an MIC [15] of 62.5 µM (≈ 17 µg/mL), a zone of inhibition at 1000 µM [2] of 16 mm and a zone of inhibition at 1000 µM [3] of 10.8 mm. The zone of inhibition at 1000 µM [4] was 18 mm and the zone of inhibition at 1000 µM [5] was 14 mm.
